From US20230129258A1, “HETEROTANDEM BICYCLIC PEPTIDE COMPLEXES” (BicycleTx Limited, priority 2019, published 2023)
Starred links: 1 amine or outer side, 2 acyl side, 3 side chain; linkers in the order of their positions; H or OH if unused. Positions of bridges follow the written chain, without caps; N, C: chain ends. Non-standard residues stand in square brackets, D forms with d. Primed or numbered codes have the meaning given here. Chains are numbered I, II in the order given. No end group written: not given here. *: point of attachment. X1 = O=C(CCOCCOCCOCCN(CCOCCOCCOCCn1cc(CCC(=O)[*:2])nn1)CCOCCOCCOCCn1cc(CCC(=O)[*:3])nn1)[*:1]; PYA″ = 4-pentynoic acid, acylating the D-Lys side chain, alkyne clicked to the linker azide; PYA(3) = 4-pentynoic acid, on D-Lys NZ, clicked (triazole) to the linker azide; X2 = O=C(CCSCCC(=O)[*:1])N1CN(C(=O)CC[*:2])CN(C(=O)CC[*:3])C1; TATA = O=C(CC[*:1])N1CN(C(=O)CC[*:2])CN(C(=O)CC[*:3])C1; Dip = N[C@H](C(=O)O)C(c1ccccc1)c1ccccc1; 1Nal = N[C@@H](Cc1cccc2ccccc12)C(=O)O; His(τ-Me) = Cn1cnc(C[C@H](N)C(=O)O)c1; d1Nal = N[C@H](Cc1cccc2ccccc12)C(=O)O; Hyp = O=C(O)[C@@H]1C[C@@H](O)CN1; hArg = N=C(N)NCCCC[C@H](N)C(=O)O; tBuAla = CC(C)(C)C[C@H](N)C(=O)O; Aad = N[C@@H](CCCC(=O)O)C(=O)O; Cysteamide = C(CS[*:3])N[*:1]; Cba = N[C@@H](CC1CCC1)C(=O)O; dK(PYA) = not defined here; NMeA = CN[C@@H](C)C(=O)O; Nle = CCCC[C@H](N)C(=O)O; Pent4ynoyl = C#CCCC(=O)*; Mpa = O=C(O)CCS

Biological target: CD137 (Homo sapiens, UniProt Q07011)
Sequence (Q07011 24-255): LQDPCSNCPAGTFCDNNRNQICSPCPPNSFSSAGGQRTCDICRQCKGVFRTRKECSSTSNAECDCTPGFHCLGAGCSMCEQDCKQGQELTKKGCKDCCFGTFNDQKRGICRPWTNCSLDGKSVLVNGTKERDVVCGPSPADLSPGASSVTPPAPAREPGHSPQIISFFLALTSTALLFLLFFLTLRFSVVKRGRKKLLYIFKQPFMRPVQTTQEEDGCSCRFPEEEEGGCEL
Experiment: CD137 reporter assay (Promega, Jurkat cells) in co-culture with EphA2-expressing tumor cells (A549, PC3, HT29)
Format: cell-based
Design: host or cells: Jurkat reporter cells
Conditions: for fold induction / Emax (fold induction over background): CD137 reporter coculture assay with PC3 tumor cells; for fold induction: read-out: Emax (fold induction over background); for EC50: EC50, CD137 reporter coculture assay with PC3 tumor cells; for Fold Improvement over BCY9173, EC50 (nM) / Fold Improvement over Emax: co-culture with PC3; for Fold Improvement over Emax: versus BCY9173
Experimental: Culture medium, referred to as R1 media, is prepared by adding 1% FBS to RPMI-1640 (component of Promega kit CS196005). Serial dilutions of test articles in R1 are prepared in a sterile 96 well-plate. Add 25 μL per well of test articles or R1 (as a background control) to designated wells in a white cell culture plate. Tumor cells* are harvested and resuspended at a concentration of 400,000 cells/mL in R1 media. Twenty five (25) μL/well of tumor cells are added to the white cell culture plate. Jurkat cells (Promega kit CS196005, 0.5 mL) are thawed in the water bath and then added to 5 ml pre-warmed R1 media. Twenty five (25) μL/well of Jurkat cells are then added to the white cell culture plate. Incubate the cells and test articles for 6 h at 37° C., 5% CO2. At the end of 6 h, add 75 μL/well Bio-Glo™ reagent (Promega) and incubate for 10 min before reading luminescence in a plate reader (Clariostar, BMG). The fold change relative to cells alone (Jurkat cells+Cell line used in co-culture) is calculated and plotted in GraphPad Prism as log(agonist) vs response to determine EC50 (nM) and Fold Induction over background (Max).
The tumor cell types used in co-culture for EphA2 are A549, PC3 and HT29. The tumor cell type used in co-culture for PD-L1 is RKO.

Fold Improvement over BCY9173, EC50 (nM) [fold] | Fold Improvement over Emax [fold] | Substance | fold induction | EC50 [nM] | Emax (fold induction over background)
 |  | I: A[hArg]DC[Hyp]LVNPLCL[Nle]P[dD]W[hArg]C-NH2 / II: Ac-C[tBuAla]PE[dK]PYCFADPY[Nle]CA-NH2 / III: Ac-C[tBuAla]PE[dK]PYCFADPY[Nle]CA-NH2 (linker I:4-I:11-I:18, II:1-II:8-II:15, III:1-III:8-III:15 via TATA; linker I:N-II:5-III:5 via X1) [BCY13289] | 45.8 | 0.08 | 
 |  | I: [NMeA][hArg]DC[Hyp]LVNPLCLHP[dD]W[hArg]C-NH2 / II: Ac-C[tBuAla]PE[dK]PYCFADPY[Nle]CA-NH2 / III: Ac-C[tBuAla]PE[dK]PYCFADPY[Nle]CA-NH2 (linker I:4-I:11-I:18, II:1-II:8-II:15, III:1-III:8-III:15 via TATA; linker I:N-II:5-III:5 via X1) [BCY13275] |  | 0.08 | 47.50
 |  | I: C[Hyp][Cba]VNPLCL[Dip]P[dD]WTC[dA]-NH2 / II: [Mpa][tBuAla]PE[dK]PYCFADPY[Nle]C-NH2 / III: [tBuAla]PE[dK]PYCFADPY[Nle]C-NH2 (linker I:1-I:8-I:15, II:1-II:8-II:15 via TATA; linker I:N-II:5-III:4 via X1; linker III:N-III:7-III:14 via X2) [BCY13341] |  | 0.19 | 49.15
 |  | I: [dA][dA]DC[Hyp]LVNPLCLEP[dD]WTC-NH2 / II: Ac-C[tBuAla]PE[dK]PYCFADPY[Nle]CA-NH2 / III: Ac-C[tBuAla]PE[dK]PYCFADPY[Nle]CA-NH2 (linker I:4-I:11-I:18, II:1-II:8-II:15, III:1-III:8-III:15 via TATA; linker I:N-II:5-III:5 via X1) [BCY13281] | 35.6 | 0.17 | 
 |  | I: [d1Nal][hArg]DC[Hyp][Cba]VNPLCLEP[dA]WTC[dA]-NH2 / II: Ac-C[tBuAla]PE[dK]PYCFADPY[Nle]CA-NH2 / III: Ac-C[tBuAla]PE[dK]PYCFADPY[Nle]CA-NH2 (linker I:4-I:11-I:18, II:1-II:8-II:15, III:1-III:8-III:15 via TATA; linker I:N-II:5-III:5 via X1) [BCY13278] | 37.9 | 0.14 | 
2.05 | 1.91 | BCY14050: EphA2:CD137 1:2; BCY13918 + 2x BCY8928; linker N-(acid-PEG3)-N-bis(PEG3-azide) (peptide 1 A[hArg]DC[Hyp]LVNPLCL[His(τ-Me)]P[dD]W[hArg]C; peptide 2 Ac-C[tBuAla]PE[dK](PYA″)PYCFADPY[Nle]CA; linker I:4-I:11-I:18, II:1-II:8-II:15 via TATA (inferred); not fully specified (N-terminus, bridges); also: 2x chain 2 (2x BCY8928) on linker) |  |  | 
 |  | I: Ac-A[hArg]DC[Hyp]LVNPLCLHP[dD]W[hArg]CK-NH2 / II: Ac-C[tBuAla]PE[dK]PYCFADPY[Nle]CA-NH2 / III: Ac-C[tBuAla]PE[dK]PYCFADPY[Nle]CA-NH2 (linker I:4-I:11-I:18, II:1-II:8-II:15, III:1-III:8-III:15 via TATA; linker I:19-II:5-III:5 via X1) [BCY12973] | 48.6 | 0.16 | 
0.1 | 0.7 | BCY12725: EphA2:CD137 1:2; BCY9594 + 2x BCY12147; linker N-(acid-PEG3)-N-bis(PEG3-azide) (peptide 1 A[hArg]DC[Hyp]LVNPLCLHP[dD]W[hArg]C; peptide 2 Ac-C[tBuAla]PE[dK](PYA(3))PYCFANPY[Nle]C; linker I:4-I:11-I:18, II:1-II:8-II:15 via TATA; not fully specified (N-terminus, bridges); also: chain 2 present twice on linker, EphA2:CD137 1:2) |  |  | 
0.2 | 1.5 | BCY12731: EphA2:CD137 1:2; BCY9594 + 2x BCY12354; linker N-(acid-PEG3)-N-bis(PEG3-azide) (peptide 1 A[hArg]DC[Hyp]LVNPLCLHP[dD]W[hArg]C; peptide 2 [Mpa][tBuAla]PE[dK(PYA)]PYCFADPY[Nle][Cysteamide]; linker I:4-I:11-I:18 via TATA (inferred); linker II:1-II:8-II:15 via TATA; not fully specified (N-terminus); reading uncertain; also: chain 2 twice (1:2 complex), linker at chain B 5 to a chain's N-terminus via N-(acid-PEG3)-N-bis(PEG3-azide)) |  |  | 
 |  | I: A[hArg]DC[Hyp]LVNPLCLHP[d1Nal]W[hArg]C-NH2 / II: Ac-C[tBuAla]PE[dK]PYCFADPY[Nle]CA-NH2 / III: Ac-C[tBuAla]PE[dK]PYCFADPY[Nle]CA-NH2 (linker I:4-I:11-I:18, II:1-II:8-II:15, III:1-III:8-III:15 via TATA; linker I:N-II:5-III:5 via X1) [BCY13270] | 42.5 | 0.1 | 
 |  | I: A[hArg]DC[Hyp]LVNPLCL[1Nal]P[dD]W[hArg]C-NH2 / II: Ac-C[tBuAla]PE[dK]PYCFADPY[Nle]CA-NH2 / III: Ac-C[tBuAla]PE[dK]PYCFADPY[Nle]CA-NH2 (linker I:4-I:11-I:18, II:1-II:8-II:15, III:1-III:8-III:15 via TATA; linker I:N-II:5-III:5 via X1) [BCY13271] |  | 0.09 | 44.20
 |  | I: A[hArg]DC[Hyp]LVNPLCLEP[dD]WTC[dA]-NH2 / II: Ac-C[tBuAla]PE[dK]PYCFADPY[Nle]CA-NH2 / III: Ac-C[tBuAla]PE[dK]PYCFADPY[Nle]CA-NH2 (linker I:4-I:11-I:18, II:1-II:8-II:15, III:1-III:8-III:15 via TATA; linker I:N-II:5-III:5 via X1) [BCY13045] |  | 0.23 | 49.87
 |  | I: C[Hyp][Cba]VNPLCL[Dip]P[dD]WTC[dA]-NH2 / II: Ac-C[tBuAla]PE[dK]PYCFADPY[Nle]CA-NH2 / III: Ac-C[tBuAla]PE[dK]PYCFADPY[Nle]CA-NH2 (linker I:1-I:8-I:15, II:1-II:8-II:15, III:1-III:8-III:15 via TATA; linker I:N-II:5-III:5 via X1) [BCY13053] |  | 0.1 | 40.33
4.74 | 2.08 | BCY13279: EphA2:CD137 1:2; BCY13125 (C-term dLys) + 2x BCY8928; linker N-(acid-PEG3)-N-bis(PEG3-azide) (peptide 1 Ac-C[Hyp]LVNPLCLHP[dD]W[hArg]CL[dH]G[dK]; peptide 2 Ac-C[tBuAla]PE[dK](Pent4ynoyl)PYCFADPY[Nle]CA; linker I:1-I:8-I:15 via TATA; linker II:1-II:8-II:15 via TATA (inferred); not fully specified (bridges); also: linker N-(acid-PEG3)-N-bis(PEG3-azide) on C-terminal dK of chain 1, joins two chain 2 copies (2x BCY8928) via PYA triazoles) |  |  | 
 |  | I: A[hArg]DC[Hyp][Aad]VNPLCLHP[dD]W[hArg]C-NH2 / II: Ac-C[tBuAla]PE[dK]PYCFADPY[Nle]CA-NH2 / III: Ac-C[tBuAla]PE[dK]PYCFADPY[Nle]CA-NH2 (linker I:4-I:11-I:18, II:1-II:8-II:15, III:1-III:8-III:15 via TATA; linker I:N-II:5-III:5 via X1) [BCY13284] | 34.7 | 0.25 | 
